{"source": "paper PMC3542813", "about": "“High-throughput screening with the Eimeria tenella CDC2-related kinase2/cyclin complex EtCRK2/EtCYC3a” (Microbiology, 2012)", "key": {"EtCRK2/EtCYC3a": {"molecular_target": "EtCRK2/EtCYC3a (Eimeria tenella, UniProt Q6R8F0)", "experiment": "TR-FRET kinase assay, EtCRK2 activated by EtCYC3a", "format": "biochemical", "text": "(§1) In order to discover specific inhibitors of EtCRK2 we performed an in vitro screening campaign supported by an in silico hit enrichment (Fig. 4)."}, "HsCDK2/HsCYCA": {"molecular_target": "HsCDK2/HsCYCA (Homo sapiens, UniProt P24941)", "experiment": "TR-FRET kinase assay, human CDK2 activated by human cyclin A", "format": "biochemical", "details": "for IC50 / Ki: mean±SD, n = 3–6"}, "EtCRK2/XlRINGO": {"molecular_target": "EtCRK2/XlRINGO (Eimeria tenella, UniProt Q6R8F0)", "experiment": "biochemical", "text": "Therefore, we tested XlRINGO as an activator of EtCRK2.\nas §1"}, "[1]": {"tested_on": "E. tenella schizont development", "parameters": "method as in Engels et al., 2010", "details": "ref Engels et al., 2010, cited from earlier work"}, "host cell": {"tested_on": "host cell", "parameters": "method as in Engels et al., 2010", "details": "ref Engels et al., 2010; cited from earlier work"}, "EtCRK2": {"tested_on": "EtCRK2", "parameters": "method as in Engels et al., 2010", "details": "ref Engels et al., 2010, cited from earlier work"}, "[2]": {"molecular_target": "Eimeria tenella cyclin-like 3a (EtCYC3a), maltose binding protein fusion (Eimeria tenella)"}, "[3]": {"details": "standard CDK inhibitors, mean±SD, n = 3–6, read-out: IC50 EtCRK2/XlRINGO"}, "[4]": {"details": "standard CDK inhibitors, mean±SD, n = 3–6, read-out: Ki EtCRK2/XlRINGO"}, "[5]": {"details": "standard CDK inhibitors, mean±SD, n = 3–6, read-out: IC50 EtCRK2/EtCYC3a"}, "[6]": {"details": "standard CDK inhibitors, mean±SD, n = 3–6, read-out: Ki EtCRK2/EtCYC3a"}, "[7]": {"details": "lead structures, mean±SD, n = 3–6, read-out: IC50 EtCRK2/ EtCYC3a"}, "[8]": {"details": "lead structures, mean±SD, n = 3–6, read-out: Ki EtCRK2/ ETCYC3a"}, "[9]": {"details": "lead structures, mean±SD, n = 3–6, read-out: IC50 EtCRK2/ XlRINGO"}, "[10]": {"details": "lead structures, mean±SD, n = 3–6, read-out: Ki EtCRK2/ XlRINGO"}}, "note": "Where two headings read alike, the source gives them in different places.", "data": [{"compound": "NC1=NC(=O)/C(=C2\\CCNC(=O)c3[nH]c(Br)cc32)N1", "note": "[10-Z-Hymendialdisine, (4Z)-4-(2-amino-4-oxo-1H-imidazol-5-ylidene)-2-bromo-1,5,6,7-tetrahydropyrrolo[2,3-c]azepin-8-one]", "values": [{"measurement": "IC50", "setting": "EtCRK2/EtCYC3a", "result": "930 ± 40", "unit": "nM"}, {"measurement": "Ki", "setting": "EtCRK2/EtCYC3a", "result": "190 ± 10", "unit": "nM"}, {"measurement": "IC50", "setting": "HsCDK2/HsCYCA; standard CDK inhibitors", "result": "120 ± 20", "unit": "nM"}, {"measurement": "Ki", "setting": "HsCDK2/HsCYCA; standard CDK inhibitors", "result": "30 ± 1", "unit": "nM"}, {"measurement": "IC50", "setting": "EtCRK2/XlRINGO; [3]", "result": "440 ± 80", "unit": "nM"}, {"measurement": "Ki", "setting": "EtCRK2/XlRINGO; [4]", "result": "50 ± 20", "unit": "nM"}]}, {"compound": "O=C1Cc2c([nH]c3ccc([N+](=O)[O-])cc23)-c2ccccc2N1", "note": "[Alsterpaullone, 9-nitro-7,12-dihydro-5H-indolo[3,2-d][1]benzazepin-6-one]", "values": [{"measurement": "IC50", "setting": "EtCRK2/EtCYC3a; [5]", "result": "640 ± 340", "unit": "nM"}, {"measurement": "Ki", "setting": "EtCRK2/EtCYC3a; [6]", "result": "210 ± 40", "unit": "nM"}, {"measurement": "IC50", "setting": "EtCRK2/XlRINGO; [3]", "result": "220 ± 60", "unit": "nM"}, {"measurement": "Ki", "setting": "EtCRK2/XlRINGO; [4]", "result": "70 ± 2", "unit": "nM"}]}, {"compound": "OC(CSc1ccccc1)CN1CCC(Nc2nccc(C(F)(F)F)n2)CC1", "note": "(centres unmarked) [BES124764, 1-phenylsulfanyl-3-[4-[[4-(trifluoromethyl)pyrimidin-2-yl]amino]-1-piperidyl]propane-2-ol]", "values": [{"measurement": "IC50", "setting": "EtCRK2/EtCYC3a; [7]", "result": "7350 ± 1820", "unit": "nM"}, {"measurement": "Ki", "setting": "EtCRK2/EtCYC3a; [8]", "result": "3420 ± 1080", "unit": "nM"}, {"measurement": "times more active towards the two E. tenella complexes than towards the HsCDK2/HsCYCA complex", "setting": "HsCDK2/HsCYCA; EtCRK2/XlRINGO and EtCRK2/EtCYC3a versus HsCDK2/HsCYCA", "result": "25–30 times"}, {"measurement": "IC50", "setting": "HsCDK2/HsCYCA; lead structures", "result": "> 200000", "unit": "nM"}, {"measurement": "Ki", "setting": "HsCDK2/HsCYCA; lead structures", "result": "95300 ± 19100", "unit": "nM"}, {"measurement": "selectivity for EtCRK2 versus HsCDK2", "setting": "HsCDK2/HsCYCA; result in words", "result": "selective for EtCRK2"}, {"measurement": "IC50", "setting": "EtCRK2/XlRINGO; [9]", "result": "18600 ± 3720", "unit": "nM"}, {"measurement": "Ki", "setting": "EtCRK2/XlRINGO; [10]", "result": "4330 ± 920", "unit": "nM"}]}, {"compound": "Cc1cc(O)c2c(c1O)C(=O)C(Cl)=C(Cl)C2=O", "note": "[BES130131, 2,3-dichloro-5,8-dihydroxy-6-methyl-naphthalene-1,4-dione]", "values": [{"measurement": "IC50", "setting": "EtCRK2/EtCYC3a; [7]", "result": "18100 ± 1030", "unit": "nM"}, {"measurement": "Ki", "setting": "EtCRK2/EtCYC3a; [8]", "result": "6870 ± 1740", "unit": "nM"}, {"measurement": "IC50", "setting": "HsCDK2/HsCYCA; lead structures", "result": "14400 ± 1520", "unit": "nM"}, {"measurement": "Ki", "setting": "HsCDK2/HsCYCA; lead structures", "result": "3350 ± 1060", "unit": "nM"}, {"measurement": "IC50", "setting": "EtCRK2/XlRINGO; [9]", "result": "14800 ± 8410", "unit": "nM"}, {"measurement": "Ki", "setting": "EtCRK2/XlRINGO; [10]", "result": "5250 ± 200", "unit": "nM"}]}, {"compound": "Nc1cc(S(=O)(=O)O)c2cccnc2c1O", "note": "[BES312351, 7-amino-8-hydroxy-quinoline-5-sulfonic acid hydrate]", "values": [{"measurement": "IC50", "setting": "EtCRK2/EtCYC3a", "result": "6500 ± 2490", "unit": "nM"}, {"measurement": "Ki", "setting": "EtCRK2/EtCYC3a", "result": "4670 ± 2020", "unit": "nM"}, {"measurement": "IC50", "setting": "HsCDK2/HsCYCA; lead structures", "result": "5160 ± 2850", "unit": "nM"}, {"measurement": "Ki", "setting": "HsCDK2/HsCYCA; lead structures", "result": "780 ± 610", "unit": "nM"}, {"measurement": "IC50", "setting": "EtCRK2/XlRINGO; [9]", "result": "7130 ± 2490", "unit": "nM"}, {"measurement": "Ki", "setting": "EtCRK2/XlRINGO; [10]", "result": "940 ± 310", "unit": "nM"}]}, {"compound": "CN1CC[C@H](c2c(O)cc(O)c3c(=O)cc(-c4ccccc4Cl)oc23)[C@H](O)C1", "note": "[Flavopiridole, 2-(2-chlorophenyl)-5,7-dihydroxy-8-[(3S,4R)-3-hydroxy-1-methyl-4-piperidinyl]-4H-1-benzopyran-4-one]", "values": [{"measurement": "inhibition of E. tenella schizont development", "setting": "[1]; at concentrations of 150 and 300 nM", "result": "fully inhibits"}, {"measurement": "inhibition of E. tenella schizont development", "setting": "[1]; concentrations below 80 nm", "result": "no inhibitory effects"}, {"measurement": "concentrations at which host cell toxicity is observed", "setting": "host cell", "result": "above 600 nM"}, {"measurement": "IC50", "setting": "EtCRK2; read-out: IC50 EtCRK2 in enzyme assays", "result": "33 ± 10", "unit": "nM"}, {"measurement": "Ki", "setting": "EtCRK2; read-out: Ki EtCRK2 in enzyme assays", "result": "11 ± 3", "unit": "nM"}]}, {"compound": "O=C1Nc2ccc(S(=O)(=O)O)cc2/C1=C1/Nc2ccccc2C1=O", "note": "[Indirubin-5′-sulfonic acid, (3Z)-2-oxo-3-(3-oxo-1H-indol-2-ylidene)-1H-indole-5-sulfonic acid]", "values": [{"measurement": "IC50", "setting": "EtCRK2/EtCYC3a; [5]", "result": "940 ± 310", "unit": "nM"}, {"measurement": "Ki", "setting": "EtCRK2/EtCYC3a; [6]", "result": "240 ± 100", "unit": "nM"}, {"measurement": "IC50", "setting": "EtCRK2/XlRINGO; [3]", "result": "670 ± 180", "unit": "nM"}, {"measurement": "Ki", "setting": "EtCRK2/XlRINGO; [4]", "result": "170 ± 30", "unit": "nM"}]}, {"compound": "CC(C)C(CO)Nc1nc(Nc2cccc(Cl)c2)c2ncn(C(C)C)c2n1", "note": "(centres unmarked) [Purvalanol A, 2-[[6-[(3-chlorophenyl)amino]-9-isopropyl-purin-2-yl]amino]-3-methyl-butan-1-ol]", "values": [{"measurement": "IC50", "setting": "EtCRK2/EtCYC3a; [5]", "result": "1030 ± 180", "unit": "nM"}, {"measurement": "Ki", "setting": "EtCRK2/EtCYC3a; [6]", "result": "360 ± 130", "unit": "nM"}, {"measurement": "IC50", "setting": "HsCDK2/HsCYCA; standard CDK inhibitors", "result": "140 ± 40", "unit": "nM"}, {"measurement": "Ki", "setting": "HsCDK2/HsCYCA; standard CDK inhibitors", "result": "40 ± 1", "unit": "nM"}, {"measurement": "IC50", "setting": "EtCRK2/XlRINGO", "result": "800 ± 110", "unit": "nM"}, {"measurement": "Ki", "setting": "EtCRK2/XlRINGO", "result": "80 ± 10", "unit": "nM"}]}, {"compound": "CN[C@@H]1C[C@H]2O[C@@](C)([C@@H]1OC)n1c3ccccc3c3c4c(c5c6ccccc6n2c5c31)C(=O)NC4", "note": "[Staurosporine, (9S,10R,11R,13R)-2,3,10,11,12,13-hexahydro-10-methoxy-9-methyl-11-(methylamino)-9,13-epoxy-1H,9H-diindolo[1,2,3-gh:3′,2′,1′-lm]pyrrolo[3,4-j][1,7]benzodiazonin-1-one]", "values": [{"measurement": "IC50", "setting": "EtCRK2/EtCYC3a", "result": "190 ± 90", "unit": "nM"}, {"measurement": "Ki", "setting": "EtCRK2/EtCYC3a", "result": "530 ± 200", "unit": "nM"}, {"measurement": "IC50", "setting": "EtCRK2/XlRINGO", "result": "90 ± 10", "unit": "nM"}, {"measurement": "Ki", "setting": "EtCRK2/XlRINGO", "result": "20 ± 10", "unit": "nM"}]}, {"compound": "Eimeria tenella CDC2-related kinase 2 (EtCRK2), His-tagged (enzyme)", "values": [{"measurement": "specific activity of EtCRK2 in the EtCRK2/EtCYC3a complex, TR-FRET kinase assay with fluorescein-labelled histone H1 substrate", "setting": "[2]", "result": 0.15, "unit": "µmol/min/mg"}]}]}
